Test results published in patent US12454516B2, “Nitric oxide releasing prodrugs of MDA and MDMA” (priority 2021, dated 2025).

Assays:
[1] = Stability of Prodrug 2-1 in plasma (rat); format: in vitro ADME
[2] = Stability of Prodrug 2-1 in plasma (human); format: in vitro ADME
[3] = Stability of Prodrug 2-1 in plasma (mouse); format: in vitro ADME
[4] = Stability in SGF with pepsin; format: in vitro ADME
Solubility in FaSSIF = format: physicochemical; conditions: read-out: Solublity (uM) FaSSIF
[5] = Stability in SGF without pepsin; format: in vitro ADME
physchem = conditions: buffer, pH 6.5

| SMILES | half-life [1] | Remaining Percentage (%) 0 min [1] | Remaining Percentage (%) 15 min [1] | Remaining Percentage (%) 30 min [1] | Remaining Percentage (%) 60 min [1] | Remaining Percentage (%) 120 min [1] | half-life [2] | Remaining Percentage (%) 0 min [2] | Remaining Percentage (%) 15 min [2] | Remaining Percentage (%) 30 min [2] | Remaining Percentage (%) 60 min [2] | Remaining Percentage (%) 120 min [2] | half-life [3] | Remaining Percentage (%) 0 min [3] | Remaining Percentage (%) 15 min [3] | Remaining Percentage (%) 30 min [3] | Remaining Percentage (%) 60 min [3] | Remaining Percentage (%) 120 min [3] | Remaining Percentage (%) 0 min (Stability in PBS pH 6.5) | Remaining Percentage (%) 30 min (Stability in PBS pH 6.5) | further results |
| --- | --- | --- | --- | --- | --- | --- | --- | --- | --- | --- | --- | --- | --- | --- | --- | --- | --- | --- | --- | --- | --- |
| CC[C@H](C)C(=O)O[C@H]1C[C@@H](C)C=C2C=C[C@H](C)[C@H](CC[C@@H]3C[C@@H](O)CC(=O)O3)[C@H]21 [Lovastatin, reference compound] | 0.0747 h | 100.00% | 9.82% | 0.00% | 0.00% | 0.00% | – | – | – | – | – | – | – | – | – | – | – | – | – | – | – |
| CC(C)[N+](C)(CCOC(=O)C1c2ccccc2Oc2ccccc21)C(C)C [Propantheline, reference compound] | – | – | – | – | – | – | 0.246 h | 100.00% | 72.22% | 39.13% | 6.46% | 0.12% | 0.449 h | 100.00% | 72.20% | 49.21% | 22.77% | 4.69% | – | – | – |
| O=C(O)CCCc1ccc(N(CCCl)CCCl)cc1 [Chlorambucil, reference compound] | – | – | – | – | – | – | – | – | – | – | – | – | – | – | – | – | – | – | 100% | 62.6% | Remaining Percentage (%) 60 min (Stability in PBS pH 6.5): 39.9%; Remaining Percentage (%) 120 min (Stability in PBS pH 6.5): 15.07%; Remaining Percentage (%) 240 min (Stability in PBS pH 6.5): 2.05% |
| C[C@H](Cc1ccc2c(c1)OCO2)NC(=O)CCCO[N+](=O)[O-] [Compound 2-1, (R)-4-((1-(benzo[d][1,3]dioxol-5-yl)propan-2-yl)amino)-4-oxobutyl nitrate] | 3.84 h | 100.00% | 96.93% | 93.53% | 81.00% | 70.84% | 15.1 h | 100.00% | 100.94% | 102.03% | 90.66% | 93.79% | 26.2 h | 100.00% | 95.13% | 98.19% | 95.02% | 93.59% | 100% | 104.05% | half-life [4]: 13.5 h; Remaining Percentage (%) 0 min [4]: 100%; Remaining Percentage (%) 30 min [4]: 98.88%; Remaining Percentage (%) 60 min [4]: 98.96%; Remaining Percentage (%) 120 min [4]: 89.53%; Remaining Percentage (%) 240 min [4]: 82.75%; solubility (Solubility in FaSSIF): 284 µM; half-life [5]: 14.3 h; Remaining Percentage (%) 0 min [5]: 100%; Remaining Percentage (%) 30 min [5]: 95.42%; Remaining Percentage (%) 60 min [5]: 99.51%; Remaining Percentage (%) 120 min [5]: 93.54%; Remaining Percentage (%) 240 min [5]: 81.87%; Remaining Percentage (%) 60 min (Stability in PBS pH 6.5): 105.81%; Remaining Percentage (%) 120 min (Stability in PBS pH 6.5): 98.20%; Remaining Percentage (%) 240 min (Stability in PBS pH 6.5): 83.83%; half-life (physchem): 13.4 h |
| CC[C@H]1OC(=O)[C@H](C)[C@@H](O[C@H]2C[C@@](C)(OC)[C@@H](O)[C@H](C)O2)[C@H](C)[C@@H](O[C@@H]2O[C@H](C)C[C@H](N(C)C)[C@H]2O)[C@](C)(O)C[C@@H](C)C(=O)[C@H](C)[C@@H](O)[C@]1(C)O [Erythromycin, reference compound] | – | – | – | – | – | – | – | – | – | – | – | – | – | – | – | – | – | – | – | – | Remaining Percentage (%) 0 min [4]: 100%; Remaining Percentage (%) 30 min [4]: 59.9%; Remaining Percentage (%) 60 min [4]: 39.02%; Remaining Percentage (%) 120 min [4]: 12.40%; Remaining Percentage (%) 240 min [4]: 1.57%; Remaining Percentage (%) 0 min [5]: 100%; Remaining Percentage (%) 30 min [5]: 60.53%; Remaining Percentage (%) 60 min [5]: 34.86%; Remaining Percentage (%) 120 min [5]: 11.45%; Remaining Percentage (%) 240 min [5]: 1.64% |
